Test results as given in patent publication US20130116287A1 (priority 2010, published 2013).
Where “and” joins values, the source holds several entries; their conditions need not be identical. Equal entries are not always repeated. Where two headings read alike, the source gives them in different places.

Tests used:
Phytophthora infestans = type: in vivo; conditions: 500 ppm of active ingredient; tomato, preventive; evaluated 7 days after inoculation; 100% = no disease
Plasmopara viticola = assay: Plasmopara test (grapevines) / preventive; type: in vivo; conditions: 100 ppm of active ingredient, evaluated 6 days after inoculation, 100% = no disease
Description: Plasmopara Test (Grapevines)/Preventive
Solvent: 24.5 parts by weight of acetone
24.5 parts by weight of dimethylacetamide
Emulsifier: 1 part by weight of alkylaryl polyglycol ether
To produce a suitable preparation of active compound, 1 part by weight of active compound is mixed with the stated amounts of solvent and emulsifier, and the concentrate is diluted with water to the desired concentration.
To test for preventive activity, young plants are sprayed with the preparation of active compound at the stated rate of application. After the spray coating has dried on, the plants are inoculated with an aqueous spore suspension of Plasmopara viticola and then remain for 1 day in an incubation cabinet at approximately 20° C. and a relative atmospheric humidity of 100%. The plant is subsequently placed for 4 days in a greenhouse at approximately 21° C. and a relative atmospheric humidity of approximately 90%. The plants are then misted and placed for 1 day in an incubation cabinet.
The test is evaluated 6 days after the inoculation. 0% means an efficacy which corresponds to that of the untreated control, while an efficacy of 100% means that no disease is observed.

[1] = Measurement of logP values by HPLC on reversed phase columns (EEC directive 79/831 Annex V.A8); type: physicochemical; conditions: for Log P: pH 2.7, 0.1% formic acid in water / acetonitrile, single value
[2] = HPLC, pH 2.7, 0.1% formic acid, minor isomer
[3] = HPLC, pH 2.7, 0.1% formic acid, main isomer

SMILES | efficacy (Phytophthora infestans) [%] | efficacy (Plasmopara viticola) [%] | Log P ([1]; HPLC) | also measured
Cc1snnc1C(=NOCc1cccc(NC(=O)CSc2ccccc2)n1)c1ccccc1 (mixture of isomers) [Example 6] | 98 | 86 | – | Log P [I2] minor isomer [1, 2]: 4.09
Cc1snnc1C(=NOCc1csc(NC(=O)COc2ccccc2)n1)c1ccccc1 (mixture of isomers) [Example 7] | 100 | 88 | – | Log P (two values printed, isomers not assigned) ([1]; HPLC, pH 2.7, 0.1% formic acid, two values without isomer tag): 3.71 and 3.83
Cc1snnc1C(=NOCc1csc(NC(=O)COCc2ccccc2)n1)c1ccccc1 (mixture of isomers) [Example 28] | 100 | 93 | – | Log P [I1] main isomer [1, 3]: 3.96; Log P [I2] minor isomer [1, 2]: 3.85
COc1ccccc1OCC(=O)Nc1nc(CON=C(c2ccccc2)c2nnsc2C)cs1 (mixture of isomers) [Example 57] | 100 | 72 | – | Log P [I1] main isomer [1, 3]: 3.89; Log P [I2] minor isomer [1, 2]: 3.78
Cc1snnc1C(=NOCc1cccc(NC(=O)C(F)(F)Oc2ccccc2)n1)c1ccccc1 [Example 2] | 100 | 74 | 4.54 | –
Cc1snnc1C(=NOCc1csc(NC(=O)COCCC(C)C)n1)c1ccccc1 [Example 3] | 95 | 84 | 4.36 | –
Cc1snnc1C(=NOCc1csc(NC(=O)COc2ccccc2)n1)c1ccccc1 [Example 8] | 100 | 72 | 3.8 | –
Cc1snnc1C(=NOCc1csc(NC(=O)C(C)Oc2ccccc2)n1)c1ccccc1 (stereo not shown) [Example 15] | 100 | 93 | 4.04 | –
Cc1snnc1C(=NOCc1csc(NC(=O)COC2CCCC2)n1)c1ccccc1 [Example 23] | 95 | 91 | 4.09 | –
C=CCOC(C)C(=O)Nc1nc(CON=C(c2ccccc2)c2nnsc2C)cs1 (stereo not shown) [Example 25] | 98 | 77 | 3.61 | –
Cc1snnc1C(=NOCc1csc(NC(=O)COCc2ccccc2)n1)c1ccccc1 [Example 27] | 100 | 89 | 3.92 | –
Cc1snnc1C(=NOCc1csc(NC(=O)C(C)OCC2CC2)n1)c1ccccc1 (stereo not shown) [Example 39] | 97 | 91 | 3.83 | –
Cc1snnc1C(=NOCc1csc(NC(=O)COCC2CCC2)n1)c1ccccc1 [Example 53] | 97 | 95 | 4.11 | –
Cc1snnc1C(=NOCc1csc(NC(=O)COC2CCCCC2)n1)c1ccccc1 [Example 59, 2-(cyclohexyloxy)-N-{4-[({[(5-methyl-1,2,3-thiadiazol-4-yl)(phenyl)methylene]amino}oxy)methyl]-1,3-thiazol-2-yl}acetamide] | 97 | 75 | – | chromatographic logP ([1]; pH 2.7, HPLC, pH 2.7, 0.1% formic acid, main isomer, read-out: Log P [I1] main isomer): 4.41; chromatographic logP ([1]; pH 2.7, HPLC, pH 2.7, 0.1% formic acid, minor isomer, read-out: Log P [I2] minor isomer): 4.32; chromatographic logP ([1]; reversed phase HPLC columns, pH 2.7, mixture of Z and E diastereoisomers, preparation example 1, read-out: logP(HCOOH)): 4.41
Cc1snnc1C(=NOCc1csc(NC(=O)COCC(C)C)n1)c1ccccc1 [Example 63] | 100 | 75 | 4.01 | –
Cc1snnc1C(=NOCc1csc(NC(=O)COC(C)C)n1)c1ccccc1 [Example 65] | 95 | 84 | 3.59 | –
Cc1snnc1C(=NOCc1csc(NC(=O)C(C)OCC2CCCCC2)n1)c1ccccc1 (stereo not shown) [Example 73] | 100 | – | 5.35 | –
Cc1snnc1C(=NOCc1cccc(NC(=O)C(C)OCC2CCCCC2)n1)c1ccccc1 (stereo not shown) [Example 74] | 94 | – | 5.87 | –
Cc1snnc1C(=NOCc1csc(NC(=O)C(C)OCC2CCCC2)n1)c1ccccc1 (stereo not shown) [Example 75] | 100 | – | 4.9 | –
Cc1snnc1C(=NOCc1cccc(NC(=O)C(C)OCC2CCCC2)n1)c1ccccc1 (stereo not shown) [Example 76] | 97 | – | 5.39 | –
Cc1snnc1C(=NOCc1csc(NC(=O)COCCC2CCCC2)n1)c1ccccc1 [Example 77] | 95 | – | 4.91 | –
Cc1snnc1C(=NOCc1cccc(NC(=O)COCCC2CCCC2)n1)c1ccccc1 [Example 78] | 89 | – | 5.39 | –

SMILES | efficacy (Phytophthora infestans) [%] | efficacy (Plasmopara viticola) [%] | Log P ([1]; HPLC) | also measured
Cc1snnc1C(=NOCc1csc(NC(=O)COCCC2CCCCC2)n1)c1ccccc1 [Example 83] | 95 | – | 5.28 | –
Cc1snnc1C(=NOCc1cccc(NC(=O)COCCC2CCCCC2)n1)c1ccccc1 [Example 84] | 75 | – | 5.81 | –
Cc1snnc1C(=NOCc1csc(NC(=O)C(C)OCC(C)C)n1)c1ccccc1 (stereo not shown) [Example 85] | 95 | 73 | – | –
Cc1snnc1C(=NOCc1cccc(NC(=O)C(C)OCC(C)C)n1)c1ccccc1 (stereo not shown) [Example 86] | 95 | – | 4.83 | –
Cc1snnc1C(=NOCc1csc(NC(=O)CSC2CCCCC2)n1)c1ccccc1 [Example 87] | 97 | – | 4.46 | –
Cc1snnc1C(=NOCc1cccc(NC(=O)CSC2CCCCC2)n1)c1ccccc1 [Example 88] | 97 | – | 4.87 | –
C=CCSCC(=O)Nc1nc(CON=C(c2ccccc2)c2nnsc2C)cs1 [Example 91] | 95 | – | 3.52 | –
C=CCSCC(=O)Nc1cccc(CON=C(c2ccccc2)c2nnsc2C)n1 [Example 92] | 90 | – | 3.79 | –
Cc1snnc1C(=NOCc1cccc(NC(=O)C(C)OCc2ccccc2)n1)c1ccccc1 (stereo not shown) [Example 94] | 95 | – | 4.58 | –
Cc1snnc1C(=NOCc1csc(NC(=O)C(C)Oc2ccc(F)cc2)n1)c1ccccc1 (stereo not shown) [Example 95] | 100 | – | 4.06 | –
Cc1snnc1C(=NOCc1csc(NC(=O)C(C)SCc2ccccc2)n1)c1ccccc1 (stereo not shown) [Example 98] | 98 | – | 4.26 | –
Cc1snnc1C(=NOCc1cccc(NC(=O)C(C)SCc2ccccc2)n1)c1ccccc1 (stereo not shown) [Example 99] | 100 | – | 4.58 | –
Cc1snnc1C(=NOCc1csc(NC(=O)C(C)(C)Oc2ccccc2)n1)c1ccccc1 [Example 102] | 100 | – | 4.53 | –
Cc1snnc1C(=NOCc1cccc(NC(=O)C(C)(C)Oc2ccccc2)n1)c1ccccc1 [Example 103] | 100 | – | 4.93 | –
C#CCOC(CC)C(=O)Nc1nc(CON=C(c2ccccc2)c2nnsc2C)cs1 (stereo not shown) [Example 104] | 98 | – | 3.61 | –
C#CCOC(CC)C(=O)Nc1cccc(CON=C(c2ccccc2)c2nnsc2C)n1 (stereo not shown) [Example 105] | 95 | – | 3.9 | –
Cc1snnc1C(=NOCc1csc(NC(=O)CSC2CCCC2)n1)c1ccccc1 [Example 106] | 92 | – | 4.14 | –
Cc1snnc1C(=NOCc1cccc(NC(=O)CSC2CCCC2)n1)c1ccccc1 [Example 107] | 92 | – | 4.51 | –
Cc1snnc1C(=NOCc1csc(NC(=O)COCC2CCCC2)n1)c1ccccc1 [Example 108] | 100 | – | 4.53 | –
Cc1snnc1C(=NOCc1cccc(NC(=O)COCC2CCCC2)n1)c1ccccc1 [Example 109] | 89 | – | 5.01 | –
CC(=NOCC(=O)Nc1cccc(CON=C(c2ccccc2)c2nnsc2C)n1)c1ccccc1 [Example 112] | 95 | – | 4.51 | –
